This is an account of results in BindingDB's records for doi:10.1021/jm00018a001 (Smithkline Beecham Pharmaceuticals, 1995).

A word on the Ki: it is a measure of affinity in units of concentration, obtained from inhibition or displacement.

Test [1] concerns the target Alpha-1B adrenergic receptor (Mesocricetus auratus) (UniProt P18841). As to the kind of experiment: Binding affinity against Alpha-1B adrenergic receptor from hamster clones.
The target is the same in test [2]. As to the kind of experiment: The compound was tested for binding affinity against Alpha-1B adrenergic receptor, from hamster clones.

Chain of Alpha-1B adrenergic receptor (Mesocricetus auratus) (P18841 whole entry, looked up): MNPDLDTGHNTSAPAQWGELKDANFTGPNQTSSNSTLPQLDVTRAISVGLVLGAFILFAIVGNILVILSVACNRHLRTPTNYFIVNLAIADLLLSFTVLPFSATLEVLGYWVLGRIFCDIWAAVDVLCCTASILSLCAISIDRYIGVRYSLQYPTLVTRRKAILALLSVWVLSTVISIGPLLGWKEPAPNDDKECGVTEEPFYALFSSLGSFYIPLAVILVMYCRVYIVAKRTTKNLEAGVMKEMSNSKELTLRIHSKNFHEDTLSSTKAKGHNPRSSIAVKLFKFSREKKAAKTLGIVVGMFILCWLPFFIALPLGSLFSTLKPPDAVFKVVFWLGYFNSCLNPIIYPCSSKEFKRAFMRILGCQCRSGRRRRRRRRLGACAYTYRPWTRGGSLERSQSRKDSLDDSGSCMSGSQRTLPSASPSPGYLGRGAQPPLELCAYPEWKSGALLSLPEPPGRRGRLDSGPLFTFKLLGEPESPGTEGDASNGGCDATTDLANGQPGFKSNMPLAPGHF

Compound `COc1cc2c(cc1OC)CN(c1cc(N)c3cc(OC)c(OC)cc3n1)CC2` came in with a Ki in test [1] of 0.11 nM. On to `O=C(NC1CCN(CCc2c[nH]c3ccccc23)CC1)c1ccccc1` [N-{1-[2-(1H-Indol-3-yl)-ethyl]-piperidin-4-yl}-benzamide(indoramin)], for which affinity in test [2] was put at a Ki of 25 nM. `COc1cc2nc(N(C)CCCNC(=O)C3CCCO3)nc(N)c2cc1OC` (stereo not drawn) [N-{3-[(4-amino-6,7-dimethoxyquinazolin-2-yl)(methyl)amino]propyl}tetrahydrofuran-2-carboxamide] registered an inhibition constant (Ki) in test [1] of 12 nM. This counts as double-digit nanomolar.
